Measured values reported in patent US20210261636A1, “NEOANTIGENS EXPRESSED IN MULTIPLE MYELOMA AND THEIR USES” (Janssen Biotech, Inc., priority 2020, published 2021).

Legend:
CD8+ T cells = experiment: Exogenous autologous healthy donor restimulation assay, TNFα and IFNγ production by CD8+ T cells; type: cell-based, human; parameters: Frequency (TNFα+ IFNγ+ CD8 T cells): unit not given here; details: for Fold change (CD8+) vs. DMSO: maximum CD8+ T-cell response (TNFα and IFNγ); for Fold change (CD8+) vs. DMSO / Frequency (TNFα+ IFNγ+ CD8 T cells): donor independent, peptide pool 10 μg/mL, healthy donors; for Frequency (TNFα+ IFNγ+ CD8 T cells): maximum CD8+ T-cell response; for Immunogenic (yes/no): positive if CD8+ and/or CD4+ double positive TNFα/IFNγ frequency >=3-fold over DMSO and at least 0.01%
Method in brief: (§1)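 CD1c+ DCs from healthy donor PBMCs pulsed 2 h with 15-mer overlapping neoantigen peptide pools (10 μg/mL), irradiated 50 Gy, then co-cultured 12 days with autologous CD3+ T cells plus IL-15/IL-2. Restimulated day 11 with same pools, overnight with protein inhibitor; intracellular TNFα/IFNγ by flow. Positive: ≥3-fold over DMSO and ≥0.01% double-positive.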

CD4+ T cells = experiment: Exogenous autologous healthy donor restimulation assay, TNFα and IFNγ production by CD4+ T cells; type: cell-based, human; parameters: Frequency (TNFα+ IFNγ+ CD4 T cells): unit not given here; details: donor independent, peptide pool 10 μg/mL, healthy donors; for Fold change (CD4+) vs. DMSO: maximum CD4+ T-cell response (TNFα and IFNγ); for Frequency (TNFα+ IFNγ+ CD4 T cells): maximum CD4+ T-cell response
Method in brief: as §1

## ARHLLTLGTCGSTWP [FUS26, gene fusion P2RY6-> ARHGEF17]
CD8+ T cells
  Fold change (CD8+) vs. DMSO: 7.07
  Frequency (TNFα+ IFNγ+ CD8 T cells): 0.1
  Immunogenic (yes/no): Yes
CD4+ T cells
  Fold change (CD4+) vs. DMSO: 2.46
  Frequency (TNFα+ IFNγ+ CD4 T cells): 0.026

## PVILFKGKVRPIP [AS67, alternative splicing, MTMR14]
CD8+ T cells
  Fold change (CD8+) vs. DMSO: 28.23
  Frequency (TNFα+ IFNγ+ CD8 T cells): 0.52
  Immunogenic (yes/no): Yes
CD4+ T cells
  Fold change (CD4+) vs. DMSO: 8.57
  Frequency (TNFα+ IFNγ+ CD4 T cells): 0.071

## PPTAAASQTCLELER [FUS21, gene fusion FOSB-> KLF6]
CD8+ T cells
  Fold change (CD8+) vs. DMSO: 4.24
  Frequency (TNFα+ IFNγ+ CD8 T cells): 0.04
  Immunogenic (yes/no): Yes
CD4+ T cells
  Fold change (CD4+) vs. DMSO: 8.08
  Frequency (TNFα+ IFNγ+ CD4 T cells): 0.023

## ACGACGAGFFIKQKCIEQRESRSLS [FUS22, gene fusion IGLL5-> COMMD3-BMI1, BMI1]
CD8+ T cells
  Fold change (CD8+) vs. DMSO: 89.07
  Frequency (TNFα+ IFNγ+ CD8 T cells): 0.11
  Immunogenic (yes/no): Yes
CD4+ T cells
  Fold change (CD4+) vs. DMSO: 0.86
  Frequency (TNFα+ IFNγ+ CD4 T cells): 0.006

## TAILFTRQQSKALPSLGITNRHGFWAGQGNTVMHGRDSDGKQVKGTVVILAQGAFHQ [AS109, alternative splicing, ADAMTS15]
CD8+ T cells
  Fold change (CD8+) vs. DMSO: 4.15
  Frequency (TNFα+ IFNγ+ CD8 T cells): 0.019
  Immunogenic (yes/no): Yes
CD4+ T cells
  Fold change (CD4+) vs. DMSO: 42.23
  Frequency (TNFα+ IFNγ+ CD4 T cells): 0.064

## MDLTAIYEDSAGPLSHA [FUS54, gene fusion ZFP36-> PLEKHG2]
CD8+ T cells
  Fold change (CD8+) vs. DMSO: 15.176
  Frequency (TNFα+ IFNγ+ CD8 T cells): 2.58
  Immunogenic (yes/no): Yes
CD4+ T cells
  Fold change (CD4+) vs. DMSO: 9.66
  Frequency (TNFα+ IFNγ+ CD4 T cells): 0.063

## DVAVICSGVPVADVS [FUS5, gene fusion CD5L-> FCRL1]
CD8+ T cells
  Fold change (CD8+) vs. DMSO: 4.59
  Frequency (TNFα+ IFNγ+ CD8 T cells): 0.079
  Immunogenic (yes/no): Yes
CD4+ T cells
  Fold change (CD4+) vs. DMSO: 6.97
  Frequency (TNFα+ IFNγ+ CD4 T cells): 0.021

## MKQFLDFGECGPGPWAFLRGPGRGAAAAAPGRVGAGQLSPEAHPSSSAFPPPAP [AS10, alternative splicing, PDK1]
CD8+ T cells
  Fold change (CD8+) vs. DMSO: 70.588
  Frequency (TNFα+ IFNγ+ CD8 T cells): 12
  Immunogenic (yes/no): Yes
CD4+ T cells
  Fold change (CD4+) vs. DMSO: 76.818
  Frequency (TNFα+ IFNγ+ CD4 T cells): 0.028

## GEKILFIRVKFYFSLILFLWEDSEFELGEI [AS9, alternative splicing, GAS2]
CD8+ T cells
  Fold change (CD8+) vs. DMSO: 358.4
  Frequency (TNFα+ IFNγ+ CD8 T cells): 1.99
  Immunogenic (yes/no): Yes
CD4+ T cells
  Fold change (CD4+) vs. DMSO: 20.874
  Frequency (TNFα+ IFNγ+ CD4 T cells): 0.099

## GNVLVRYVSLYVYYILLN [AS97, alternative splicing, ANKRD28]
CD8+ T cells
  Fold change (CD8+) vs. DMSO: 13446.33
  Frequency (TNFα+ IFNγ+ CD8 T cells): 23.8
  Immunogenic (yes/no): Yes
CD4+ T cells
  Fold change (CD4+) vs. DMSO: 96.12
  Frequency (TNFα+ IFNγ+ CD4 T cells): 0.57

## CKVCQNCKNPKMARAS [AS23, alternative splicing, KMT2C]
CD8+ T cells
  Fold change (CD8+) vs. DMSO: 3.05
  Frequency (TNFα+ IFNγ+ CD8 T cells): 0.065
  Immunogenic (yes/no): Yes
CD4+ T cells
  Fold change (CD4+) vs. DMSO: 18
  Frequency (TNFα+ IFNγ+ CD4 T cells): 0.063

## AFIYHAFVGSTKTAWRTTL [FUS13, gene fusion KCNQ5-> KCNQ5-IT1]
CD8+ T cells
  Fold change (CD8+) vs. DMSO: 3.96
  Frequency (TNFα+ IFNγ+ CD8 T cells): 0.033
  Immunogenic (yes/no): Yes
CD4+ T cells
  Fold change (CD4+) vs. DMSO: 8.79
  Frequency (TNFα+ IFNγ+ CD4 T cells): 0.057

## FGTSHMMVRHF [AS33, alternative splicing, CFAP54]
CD8+ T cells
  Fold change (CD8+) vs. DMSO: 47.27
  Frequency (TNFα+ IFNγ+ CD8 T cells): 0.49
  Immunogenic (yes/no): Yes
CD4+ T cells
  Fold change (CD4+) vs. DMSO: 2.78
  Frequency (TNFα+ IFNγ+ CD4 T cells): 0.009

## KRYGCVFQVSIRHLSFPVTDILP [AS77, alternative splicing, TRAF3]
CD8+ T cells
  Fold change (CD8+) vs. DMSO: 369.64
  Frequency (TNFα+ IFNγ+ CD8 T cells): 1.12
  Immunogenic (yes/no): Yes
CD4+ T cells
  Fold change (CD4+) vs. DMSO: 7.547
  Frequency (TNFα+ IFNγ+ CD4 T cells): 0.046

## LLPPGQESAIIGPPGMQ [FUS45, gene fusion IFNAR2-> IL10RB]
CD8+ T cells
  Fold change (CD8+) vs. DMSO: 88.8
  Frequency (TNFα+ IFNγ+ CD8 T cells): 0.43
  Immunogenic (yes/no): Yes
CD4+ T cells
  Fold change (CD4+) vs. DMSO: 10.56
  Frequency (TNFα+ IFNγ+ CD4 T cells): 0.1

## GKSTPPRKEIFDDASP [FUS11, gene fusion GAB1-> SMARCA5]
CD8+ T cells
  Fold change (CD8+) vs. DMSO: 7.36
  Frequency (TNFα+ IFNγ+ CD8 T cells): 0.013
  Immunogenic (yes/no): Yes
CD4+ T cells
  Fold change (CD4+) vs. DMSO: 11.4
  Frequency (TNFα+ IFNγ+ CD4 T cells): 0.008

## ARWFTREQGSEN [FUS12, gene fusion NUDT12-> LINC02115]
CD8+ T cells
  Fold change (CD8+) vs. DMSO: 24.68
  Frequency (TNFα+ IFNγ+ CD8 T cells): 0.58
  Immunogenic (yes/no): Yes
CD4+ T cells
  Fold change (CD4+) vs. DMSO: 2.77
  Frequency (TNFα+ IFNγ+ CD4 T cells): 0.027

## QILQQALKKLPFSLCITECETIAYHLARDSNGNLEL [AS131, alternative splicing, USP25]
CD8+ T cells
  Fold change (CD8+) vs. DMSO: 299.44
  Frequency (TNFα+ IFNγ+ CD8 T cells): 0.53
  Immunogenic (yes/no): Yes
CD4+ T cells
  Fold change (CD4+) vs. DMSO: 10.53
  Frequency (TNFα+ IFNγ+ CD4 T cells): 0.008

## SSVTTHSSGNLRESPIYH [FUS32, gene fusion GANC-> CAPN3]
CD8+ T cells
  Fold change (CD8+) vs. DMSO: 12.04
  Frequency (TNFα+ IFNγ+ CD8 T cells): 0.018
  Immunogenic (yes/no): Yes
CD4+ T cells
  Fold change (CD4+) vs. DMSO: 3.08
  Frequency (TNFα+ IFNγ+ CD4 T cells): 0.008

## SSLQEHRKLLS [AS52, alternative splicing, PRDM5]
CD8+ T cells
  Fold change (CD8+) vs. DMSO: 12.72
  Frequency (TNFα+ IFNγ+ CD8 T cells): 0.18
  Immunogenic (yes/no): Yes
CD4+ T cells
  Fold change (CD4+) vs. DMSO: 1.9
  Frequency (TNFα+ IFNγ+ CD4 T cells): 0.012

## SEMVAHERYVFEATGNDSFRTLCLLMK [AS112, alternative splicing, CFAP54]
CD8+ T cells
  Fold change (CD8+) vs. DMSO: 35.03
  Frequency (TNFα+ IFNγ+ CD8 T cells): 0.062
  Immunogenic (yes/no): Yes
CD4+ T cells
  Fold change (CD4+) vs. DMSO: 7.92
  Frequency (TNFα+ IFNγ+ CD4 T cells): 0.012

## RHQENVHTVLVHGKVKGLFYI [AS125, alternative splicing, PRDM5]
CD8+ T cells
  Fold change (CD8+) vs. DMSO: 28.62
  Frequency (TNFα+ IFNγ+ CD8 T cells): 0.78
  Immunogenic (yes/no): Yes
CD4+ T cells
  Fold change (CD4+) vs. DMSO: 6.57
  Frequency (TNFα+ IFNγ+ CD4 T cells): 0.023

## ILAQKKKDELSS [AS93, alternative splicing, TJP1]
CD8+ T cells
  Fold change (CD8+) vs. DMSO: 1.44
  Frequency (TNFα+ IFNγ+ CD8 T cells): 0.014
  Immunogenic (yes/no): Yes
CD4+ T cells
  Fold change (CD4+) vs. DMSO: 9.9
  Frequency (TNFα+ IFNγ+ CD4 T cells): 0.015

## GEVKWSVGSRTSLLL [FUS38, gene fusion CD79B-> GH1]
CD8+ T cells
  Fold change (CD8+) vs. DMSO: 23.41
  Frequency (TNFα+ IFNγ+ CD8 T cells): 0.18
  Immunogenic (yes/no): Yes
CD4+ T cells
  Fold change (CD4+) vs. DMSO: 4.06
  Frequency (TNFα+ IFNγ+ CD4 T cells): 0.007

## QLSVVTRDDYNSSELK [AS87, alternative splicing, BMP6]
CD8+ T cells
  Fold change (CD8+) vs. DMSO: 44.64
  Frequency (TNFα+ IFNγ+ CD8 T cells): 1.25
  Immunogenic (yes/no): Yes
CD4+ T cells
  Fold change (CD4+) vs. DMSO: 4.45
  Frequency (TNFα+ IFNγ+ CD4 T cells): 0.016

## QRDRDSIKVGLKIYRLRNGLKGL [AS76, alternative splicing, TLE4]
CD8+ T cells
  Fold change (CD8+) vs. DMSO: 6.15
  Frequency (TNFα+ IFNγ+ CD8 T cells): 0.54
  Immunogenic (yes/no): Yes
CD4+ T cells
  Fold change (CD4+) vs. DMSO: 224.35
  Frequency (TNFα+ IFNγ+ CD4 T cells): 0.34

## LARQISFKSLI [FUS14, gene fusion UBE2J1-> GABRR2]
CD8+ T cells
  Fold change (CD8+) vs. DMSO: 3.27
  Frequency (TNFα+ IFNγ+ CD8 T cells): 0.005
  Immunogenic (yes/no): Yes
CD4+ T cells
  Fold change (CD4+) vs. DMSO: 256.93
  Frequency (TNFα+ IFNγ+ CD4 T cells): 0.19
